# Laboratory results reported in US20240084354A1, “MEANS AND METHODS FOR REGULATING INTRACELLULAR TRAFFICKING OF SECRETORY OR CELL MEMBRANE-ANCHORED PROTEINS OF INTEREST” (HONING BIOSCIENCES, priority 2020, published 2024).
# Entries after “also recorded” stand apart in the source; their conditions may differ.
# Key:
# Jurkat cells = test: Flow cytometry of GFP fluorescence in transduced Jurkat cells; format: cell-based
# Procedure: Transduced cells either received no treatment or were treated with 40 μM of biotin for 15 minutes, 60-75 minutes or overnight (0/N).
# The RPMI medium was supplemented with 14 μg/mL of avidin to chelate the existing biotin present in the medium.
# (§1) After incubation with biotin, the cells were immediately transfer on ice, to inhibit or slow down the traffic of the cargo, followed by centrifugation (300 g, 4° C., 5 minutes), washed twice in cold 1×PBS (300 g, 4° C., 5 minutes) and incubated with live/dead fixable staining (20 minutes, on ice; Thermofisher). The cells were then washed twice in cold PBS (300 g, 4° C., 5 minutes) or FACS buffer (1×PBS, 1% BSA, 0.05% sodium azide, 1 mL EDTA 0.5 M, filtered and kept at 4° C.) and, when not analyzed immediately, the cells were fixed in 3% PFA-1×PBS (10 minutes, RT) and washed twice in 1×PBS.
# Transduced cells either received no treatment or were treated with 40 μM of biotin for 6 hours.
# Transduction of HEK293FT and Jurkat cells were done using the same volume v/v of particles for each construct increasingly.
# The expression of the cytokine was evaluated by measuring GFP using flow cytometry, three days later for HEK293FT and more than six days later for Jurkat cells. […]
# For both types of cells, the expression of the cytokine was evaluated by measuring GFP using flow cytometry, 3 days later for HEK293FT and more than 6 days later for Jurkat cells. […]
# [1] = system: Primary CD8+ T or CD4/CD8+ T cells; test: Flow cytometry of GFP fluorescence in transduced primary T cells; format: cell-based, human
# Procedure: T cells were isolated from leukocyte reduction system chamber (LRSC) from blood of healthy donors by negative selection using the EasySep Direct Human T cell isolation kit (STEM cells) or MACSxpress LRSC Pan T Cell Isolation Kit, human (Miltenyi) according to the manufacturer's instructions.
# Primary CD8^+ T or CD4/CD8^+ T cells were plated into culture plates and transduced with said lentiviral particle at a MOI between 1 and 5 for 3 days.
# Primary CD8^+ T or CD4/CD8^+ T cells were plated into culture plates for Flow cytometry assay.
# To prevent cytokines released due to the possible presence of biotin in TexMacs buffer, 1 μg/mL of avidin was added to chelate biotin, starting from the day of transduction and following days of cell culture. […]
# as §1
# HeLa cells [2] = test: Immunofluorescence of transduced HeLa cells (GFP/Cherry staining), with or without biotin; format: cell-based; details: 40 μM biotin
# Procedure: HeLa cells were plated on a cell culture plate and transduced with said lentiviral particle at a MOI between 1 and 5 for 2 days.
# Transduced HeLa cells were plated on coverslip for immunofluorescence assay.
# Transduced cells either received no treatment or were treated with 40 μM of biotin.
# Cells for immunofluorescence assay were either treated or not with 40 μM or higher of biotin for 15 minutes, 75 minutes or 16 hours (steady-state).
# Cells coated onto coverslips were washed once in 1×PBS buffer, fixed in 3% of paraformaldehyde (PFA) for 10-15 minutes at room temperature, then washed twice and alternatively incubated with 50 mM of NH4Cl-1×PBS for 5 minutes at room temperature to quench free aldehydes. The cells were then permeabilized using a solution of PBS containing 0.5% Bovine Serum Albumin (BSA) and 0.05% saponin (Saponin, Sigma-Aldrich) for 15 minutes at room temperature. The coverslips were mounted in Mowiol supplemented with DAPI (4′,6-diamidino-2-phenylindole) for DNA staining.
# HeLa cells [3] = test: Western blot (GFP revelation) of cell medium and cell extract of transduced HeLa cells; format: cell-based; details: 40 μM biotin, 60 minutes or O/N
# Procedure: Cells for western blotting were treated either treated or not with 40 μM biotin or higher for 60 minutes or over-night (0/N).
# After biotin treatment, the supernatant was recovered and centrifuged for removal of the detached or dead cells at 300 g, 4° C., for 5-10 minutes and kept on ice. While the cells (defined hereafter as pellet) were incubated with protein loading buffer 1×(5 mM Tris-HCl, pH 7.0, 30 mM ethylenediaminetetra acid (EDTA), pH 8.0; 0.01% bromophenol blue, 5% glycerol) for 5 minutes at room temperature, scratched and transfer to a new tube followed by denaturation at 95-100° C. for 10-20 minutes. The supernatant (from adherent or suspension cells) were incubated with StrataClean Resin (Agilent) to collect and concentrate protein present in the supernatant, for at least 2 hours at 4° C. with orbital agitation. […] Cytokines were detected using monoclonal anti-GFP (1/1000; Roche) in 5% skim milk in 0.1% Tween-20 PBS for 1 hour at room temperature or overnight (0/N) at 4° C., followed by the respective horseradish peroxidase (HRP) conjugated secondary polyclonal antibody (1/15000) in 5% skim milk in 0.1% Tween-20 PBS for 1 hour at room temperature. […]
# [4] = system: HEK blue IL-2 reporter cell line; test: Cytokine activity of medium of transduced HeLa cells on reporter cell line HEK blue IL-2; format: cell-based; details: no biotin
# Procedure: Cells were treated with 40 μM biotin for 0 minute, 15 minutes, 60 minutes, 90 minutes, 120 minutes or 4320 minutes (=72 hours).
# After treatment of the cells, the cell medium (1500 μL) was collected and centrifuged (300 g, 4° C., 5-10 minutes) to remove dead cells.
# The cell medium of the RUSH-transduced cells was added into a cell culture 96-well plate (flat bottom) at a dilution 1/80 to 1/100 followed by the platting of HEK-Blue cells at approximately 50 000 cells/well. On the next day (after approximately 24 hours), 20 μL of the supernatant of these cells was transferred to a new plate and 180 μL of QUANTI-Blue substrate was added and incubated at 37° C. and 5% of C02 for 1-3 hours. The absorbance was then measured at 620 nm. The response ratio of the cytokines was determined by dividing the value of absorbance of the treated cells by non-treated cells. The values were them normalized to WT cells line.
# CTLL-2 NFκB cells = test: IL-2-induced proliferation of CTLL-2 NFκB cells; format: cell-based; details: medium of transduced HeLa cells
# Procedure: The relative proliferation and NFκB response measured by luminescence in CTLL2 NFκB was determined as described by Mock et al. (2020. Sci Rep. 10(1):3234). Briefly, CTLL2 NFκB were starved for about 24 hours, i.e., incubated for 24 hours without IL-2 to reduce the background due to the presence of IL-2 in the medium. After starvation, the cells (approximately 50 000 cells/well) in a cell culture 96-well plate (flat bottom) were incubated with the supernatant of the transduced cells either non-treated or treated with biotin diluted at 1/80 to a final volume of 200 μL. The cells were incubated for 72 hours at 37° C. and 5% of C02.
# For CTLL-2 proliferation, CellTiter 96 Aqueous One Solution (Promega) was used according to the manufacturer's instructions. Briefly, 100 μL of the cells medium were removed and 20 μL of CellTiter 96 Aqueous One Solution (Promega) were added and incubated at least for 1 hours at 37° C. and 5% of CO2 before reading the absorbance at 490 nm. The relative proliferation or luminescence was determined by dividing the absorbance of treated cells by non-treated cells.
Substance,"GFP upon addition of biotin within 6 hours (flow cytometry) (Jurkat cells; 40 μM biotin, 6 hours)",Intracellular GFP expression without biotin treatment (flow cytometry) (Jurkat cells; no biotin),GFP-expressing cells upon addition of biotin ([1]; 40 μM biotin),Efficiency of transduction / T cells expressing the cytokine ([1]; absence of biotin) [%],Traffic and secretion of the cytokine upon biotin addition (immunofluorescence) (HeLa cells [2]),Cytokine secretion in cell medium upon biotin addition (western blot) (HeLa cells [3]),Response of the reporter cell line in the absence of biotin [4],CTLL-2-NFκB cell proliferation after 4320 minutes of biotin (CTLL-2 NFκB cells; biotin 4320 minutes),"CTLL-2-NFκB cell proliferation, biotin for more than 60 minutes (CTLL-2 NFκB cells; biotin more than 60 minutes)",CTLL-2-NFκB cell proliferation in absence of biotin (CTLL-2 NFκB cells; no biotin)
CCL5-SBP-eGFPhibit: RUSH system with CCL5 fused to SBP and to eGFP containing HiBit tag (SEQ ID NO: 604) (VSGWRLFKKIS; HiBit tag),showed a decrease in GFP-expressing cells,showed a proper intracellular GFP expression,decrease of GFP-expressing cells,6,,,,,,
SPCCL5-IL-2-SBP-eGFP: RUSH system with Interleukin-2 fused to SBP and eGFP using the signal peptide of CCL5 (SEQ ID NO: 603) (MKVSAAALAVILIATALCAPASA; Signal peptide of CCL5),,,,,"After 15 minutes with biotin treatment, the cytokine was localized in the Golgi; also recorded: at 75 minutes, a high percentage of the cytokine still remained in the Golgi; also recorded: At 4 hours, most of the cytokine had been secreted",the highest secretion was observed after O/N with biotin,induced a small response by the reporter cell line,seemed to better sustain cell activation,a significant increase in cell proliferation was observed,proliferated
